{"source": "patent US20140323575A1", "about": "“TYROSINE ISOMERS AS THERAPEUTIC AGENTS” (CONSEJO NACIONAL DE INVESTIGACIONES CIENTIFICAS Y TECNICAS …, priority 2011, published 2014)", "key": {"[1]": {"test_system": "CEI tumor", "assay": "In vivo growth of s.c. CEI epidermoid carcinoma implants", "design": "species or system mice", "conditions": "for effect on growth of CEI tumor implants: mouse, in vivo", "procedure": "Twelve mice received a s.c. implant of 1×10^6 CEI tumor cells in the right flank and 28 days later they received a secondary implant of 3×10^5 CEI tumor cells in the left flank. […] The remaining 6 mice received 0.2 ml of phenylalanine (500 μg/ml) at the site of the secondary implant, daily, for 19 days, starting 1 hour later than the secondary implant. These secondary implants grew as in 6 controls only receiving the implant in the left flank (tumor volumes of secondary tumor+phenylalanine and of controls, 20 days after the implant in the left flank were 358±38 mm^3 and 373±93 mm^3, respectively). […] Significance: Secondary tumor and control+m-tyrosine vs. control: p<0.01; vs. secondary tumor+phenylalanine: p<0.001."}, "[2]": {"test_system": "C7HI tumor metastases", "assay": "Spontaneous metastases of C7HI mammary adenocarcinoma in vivo", "design": "species or system mice", "procedure": "FIG. 7A illustrates an experiment in which mice bearing a C7HI tumor for 50 days received, between days 50 and 64, a daily intravenous injection of meta-tyrosine (0.3 mL of 1,000 μg/mL) or saline. Mice were sacrificed at day 50 (n=8, before treatment, primary tumor volume 241±16 mm^3) or at day 65 for treated (n=12, primary tumor volume 1,080±101 mm^3) or control (n=12, primary tumor volume 1,091±88 mm^3) mice, and number and size of macroscopic metastases were determined; d=diameter of metastases in mm; a, P<0.05 (Mann-Whitney U test and Student t test) versus control. […] H&E, hematoxylin and eosin.\nMice bearing a C7HI tumor for 50 days received, between days 50 and 71, a daily intravenous injection of 1.0 mg of meta-tyrosine diluted in 0.1 ml of saline, or saline only. Mice were sacrificed ad day 50 (n=12, before treatment) or at day 71 for treated (n=12) or control (n=12) mice, and number and size of macroscopic metastases were determined; d=diameter of metastases in mm.\nC7HI is a breast carcinoma that generates a high number of pulmonary and hepatic metastases, the number of pulmonary metastases being higher than the number of hepatic metastases. In this experiment, 36 mice received one implant each of 5×10^5 tumor C7HI cells. 50 days after implanting the tumor cells, 12 mice were sacrificed for evaluating the number and size of pulmonary and hepatic metastases. The remaining 24 mice were divided in two groups of 12 mice each. The experimental group received 1.0 mg of meta-tyrosine diluted in 0.1 ml of saline per mouse per day. […] The second group (control) received in 0.1 ml of saline per mouse per day. After 21 days of treatment, all mice were sacrificed and the number and size of the metastases were evaluated. […] This inhibitory activity was reflected not only in that the number of metastases of both groups was the same, and in some cases lower, as compared with the number of metastases at the beginning of the treatment (as estimated by the data produced by the 12 mice sacrificed before starting the treatments), but also in that their size was either the same or smaller. This is remarkable because of the 12 experimental mice, there was one showing a low response to the treatment. Should the values measured in this particular mouse be excluded from the pool, the number of metastases at day 71 in the experimental group would have been less than half the number of metastases observed before the start of the treatment at day 50."}, "[3]": {"test_system": "CEI tumor cells", "assay": "In vitro proliferation of CEI tumor cells", "format": "cell-based", "conditions": "dose-dependent, not shown"}, "[4]": {"test_system": "Chinese-hamster ovary (CHO) cells", "conditions": "cited from earlier work; for toxicity to CHO cells: incubated in vitro for 7-10 days"}, "[5]": {"assay": "Evaluation of toxicity of the tyrosine isomers", "format": "in vivo, mice", "conditions": "for health of mice after three weeks of treatment / hematologic populations of the blood or the spleen / histological alterations in analyzed tissues / anti-RRC antibody levels: higher dose; for histological alterations in analyzed tissues: three weeks of treatment; for anti-RRC antibody levels: tumor bearing mice and normal mice", "procedure": "The effect of meta-tyrosine and ortho-tyrosine on the immune response triggered by a conventional antigen was evaluated. Ram red cells (RRC) were used."}, "[6]": {"test_system": "MC-C tumor cells", "assay": "In vitro proliferation of MC-C tumor cells", "format": "cell-based", "conditions": "dose-dependent, not shown"}, "[7]": {"test_system": "LB tumor", "assay": "In vivo growth of s.c. LB tumor implants (primary, secondary under CR, established, ascitic)", "design": "species or system mice", "conditions": "for inhibition of tumor cells in euthymic versus nude mice: mouse, in vivo"}, "[8]": {"test_system": "LB tumor cells", "assay": "In vitro LB tumor cell proliferation ([3H]-thymidine uptake)", "format": "cell-based, mice", "conditions": "for IC50: Mus musculus, substance alone, read-out: GIU50/mL on in vitro LB tumor cell proliferation; for reversibility of the inhibitory effect: after 18 hours of culture, old medium replaced by fresh medium", "procedure": "Each point (percentage of cpm incorporated by LB cells as compared with the control) represents the mean±SE of 3 experiments. Significance versus control, meta-tyrosine and peak 2: P<0.001 at >2.75 μg/mL; peak 2: P<0.05 at 2.75 μg/mL. ortho-tyrosine P<0.001 at 500 to 125 μg/mL; P<0.002 at 30 μg/mL. Peak 3: P<0.002 and P<0.01, at 31 and 15.5 μg/mL, respectively. Rescue of in vitro LB tumor inhibition mediated by meta-tyrosine (150 μg/mL)(B) or ortho-tyrosine (150 μg/mL) (C) by co-culturing with 150 μg/mL of individual protein amino acids. Each value represents the mean±SE of 8 to 18 determinations for (B) and 4 to 9 determinations for (C). a, P<0.01; c, P<0.001 versus meta- or ortho-tyrosine. Data with saline was similar to data obtained with each amino acid alone.\nFractionation of serum from mice bearing a subcutaneous LB tumor (size≧2,000 mm^3) was carried out through several steps of purification (FIG. 1). Serum from normal mice was similarly fractioned as control. At all stages of the purification, the presence of the inhibitory factor was monitored by the [^3H]-thymidine uptake assay as a measure of LB tumor cell proliferation. First, serum was decomplemented and subjected to dialysis. The inhibitory factor was recovered only in the dialyzable fraction (MW<12,500 Da) and was then concentrated by lyophilization and applied successively to Sephadex G-25 and G-15 chromatographic columns, where activity was recovered at fractions corresponding to a molecular weight below 1,000 Da. These fractions were lyophilized and further purified with an HPLC column C18 in a gradient of acetonitrile in TFA (first HPLC). In 12 similar and independent experiments, growth inhibitory activity was systematically recovered in only 1 fraction eluted at near 20% acetonitrile (FIG. 2).\nTo test directly whether a “cocktail” of amino acids similar to that detected close to the “primary site” was more counteracting of the antitumor effects produced by m- and o-tyrosine than a “secondary site cocktail,” different concentrations of a mixture of m-tyrosine and o-tyrosine (ratio 1:1) were assayed on LB tumor cell proliferation, alone or together with a primary or a secondary site cocktail of amino acids."}, "[9]": {"test_system": "C7HI tumor cells", "assay": "In vitro proliferation of C7HI tumor cells", "format": "cell-based", "conditions": "dose-dependent, not shown"}, "[10]": {"conditions": "1.0 mg per mouse per day, intravenous, 21 days"}}, "note": "“Also recorded” adds a separate entry of the source."}
{"smiles": "NC(Cc1cccc(O)c1)C(=O)O", "note": "(stereo not drawn) [meta-tyrosine, 3-hydroxyphenylalanine]", "values": [{"measurement": "tumor volume 20 days after the implant in the left flank", "setting": "[1]; CEI implant in left flank only, 0.2 ml of 500 μg/ml daily for 19 days at the site of the implant", "result": 0, "unit": "mm^3"}, {"measurement": "effect on growth of CEI tumor implants", "setting": "[1]", "result": "sharp inhibitory effects"}, {"measurement": "difference between size of primary tumors at day 71, experimental versus controls", "setting": "[2]; 1.0 mg daily intravenous, days 50 to 71", "result": "not significant"}, {"measurement": "growth of microscopic metastases", "setting": "[2]; [10]", "result": "prevented growth"}, {"measurement": "hepatic metastases at day 71", "setting": "[2]; [10]", "result": "no metastases were detected"}, {"measurement": "growth of established macroscopic pulmonary metastases", "setting": "[2]; 1.0 mg per mouse per day, intravenous, 21 days (days 50-71)", "result": "prevented the growth"}, {"measurement": "primary tumor volume at day 65", "setting": "[2]; daily intravenous 0.3 mL of 1,000 μg/mL, days 50 to 64", "result": "1,080±101 mm^3"}, {"measurement": "established spontaneous C7HI lung metastases", "setting": "[2]; daily intravenous 0.3 mL of 1,000 μg/mL, days 50 to 64 (FIG. 7), listed as m-tyrosine", "result": "less metastatic foci; also recorded: sharp inhibitory effects"}, {"measurement": "in vitro proliferation of CEI tumor cells", "setting": "[3]", "result": "inhibited"}, {"measurement": "toxicity to CHO cells", "setting": "[4]", "result": "toxic"}, {"measurement": "CHO cells alive 10 days after start of the in vitro culture", "setting": "[4]; treated with meta-tyrosine", "result": 70, "unit": "%"}, {"measurement": "toxic side effects in tumor-bearing mice", "setting": "[5]; during treatment of MC-C, CEI and C7HI tumors", "result": "without exhibiting toxic side effects"}, {"measurement": "health of mice after three weeks of treatment", "setting": "[5]", "result": "remained in good health"}, {"measurement": "hematologic populations of the blood or the spleen", "setting": "[5]", "result": "did not affect"}, {"measurement": "histological alterations in analyzed tissues", "setting": "[5]", "result": "no histological alterations"}, {"measurement": "anti-RRC antibody levels", "setting": "[5]", "result": "does not affect"}, {"measurement": "in vitro proliferation of MC-C tumor cells", "setting": "[6]", "result": "inhibited"}, {"measurement": "inhibition of tumor cells in euthymic versus nude mice", "setting": "[7]", "result": "Identical inhibition"}, {"measurement": "effect on ascitic LB tumor cells", "setting": "[7]; not shown", "result": "inhibitory"}, {"measurement": "IC50", "setting": "[8]", "result": "4.5 ± 0.9", "unit": "mg/L"}, {"measurement": "reversibility of the inhibitory effect", "setting": "[8]", "result": "reversible"}, {"measurement": "inhibitory effect of m-tyrosine relative to o-tyrosine", "setting": "[8]; in vitro LB tumor cell proliferation", "result": "about 10 times"}, {"measurement": "in vitro proliferation of C7HI tumor cells", "setting": "[9]", "result": "inhibited"}]}
{"smiles": "NC(Cc1ccccc1O)C(=O)O", "note": "(stereo not drawn) [ortho-tyrosine, 2-hydroxyphenylalanine]", "values": [{"measurement": "effect on growth of CEI tumor implants", "setting": "[1]", "result": "inhibitory"}, {"measurement": "effect on C7HI metastases, experiment repeated with orto-tyrosine", "setting": "[2]; mouse, in vivo", "result": "inhibitory effect"}, {"measurement": "in vitro proliferation of CEI tumor cells", "setting": "[3]", "result": "inhibited"}, {"measurement": "toxicity to CHO cells", "setting": "[4]", "result": "toxic"}, {"measurement": "health of mice after three weeks of treatment", "setting": "[5]", "result": "remained in good health"}, {"measurement": "hematologic populations of the blood or the spleen", "setting": "[5]", "result": "did not affect"}, {"measurement": "histological alterations in analyzed tissues", "setting": "[5]", "result": "no histological alterations"}, {"measurement": "anti-RRC antibody levels", "setting": "[5]", "result": "does not affect"}, {"measurement": "in vitro proliferation of MC-C tumor cells", "setting": "[6]", "result": "inhibited"}, {"measurement": "inhibition of tumor cells in euthymic versus nude mice", "setting": "[7]", "result": "Identical inhibition"}, {"measurement": "IC50", "setting": "[8]", "result": "46.7 ± 5.2", "unit": "mg/L"}, {"measurement": "reversibility of the inhibitory effect", "setting": "[8]", "result": "reversible"}, {"measurement": "in vitro proliferation of C7HI tumor cells", "setting": "[9]", "result": "inhibited"}]}
